IC50 data for 33 compounds are collected here from US11098032B2, “Pyran dervatives as CYP11A1 (cytochrome P450 monooxygenase 11A1) inhibitors” (ORION CORPORATION, priority 2016, dated 2021).

The target of this assay is T1, CYP11A1 (Homo sapiens, UniProt P05108).
T1 construct: human H295R adrenocortical carcinoma cell line was used as source of enzyme; endogenous in cells; host or cells: H295R human adrenocortical carcinoma cells
T1 sequence (P05108 40-521): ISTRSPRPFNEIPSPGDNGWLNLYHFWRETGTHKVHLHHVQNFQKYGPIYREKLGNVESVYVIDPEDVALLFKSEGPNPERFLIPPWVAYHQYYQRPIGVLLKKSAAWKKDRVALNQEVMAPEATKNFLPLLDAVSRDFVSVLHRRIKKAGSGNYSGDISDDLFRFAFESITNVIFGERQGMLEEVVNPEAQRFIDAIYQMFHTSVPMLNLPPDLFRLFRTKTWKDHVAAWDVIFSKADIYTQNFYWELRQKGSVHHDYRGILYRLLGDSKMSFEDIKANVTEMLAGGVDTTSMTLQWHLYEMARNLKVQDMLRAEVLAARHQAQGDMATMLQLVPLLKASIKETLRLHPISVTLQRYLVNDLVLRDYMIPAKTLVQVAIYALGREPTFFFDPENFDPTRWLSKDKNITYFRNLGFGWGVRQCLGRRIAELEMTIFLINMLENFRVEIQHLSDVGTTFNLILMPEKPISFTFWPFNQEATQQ
In words: CYP11A1 inhibition: modified isocaproic acid release assay (IARA) in H295R cells. The assay is classed as cell-based. The settings on record: human H295R adrenocortical carcinoma cells treated three days, 3 nM [24,25-3H]-labelled cholesterol, 1% DMSO, 10 concentrations in duplicates; read-out: IC50 of the test compounds on CYP11A1 inhibition. The gist of the method: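 H295R adrenocortical cells treated three days with test compounds at 10 concentrations in duplicate plus 3 nM [24,25-3H]-cholesterol, 1% DMSO final. Released radiolabelled isocaproic acid measured by scintillation counting after dextran-coated charcoal extraction; IC50 determined.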
With `CS(C)(=O)=NC(=O)c1ccc(COc2coc(CN3Cc4ccccc4C3)cc2=O)cc1` [Compound 83, 4-({[6-(1,3-Dihydro-2H-isoindol-2-ylmethyl)-4-oxo-4H-pyran-3-yl]oxy}methyl)-N-[dimethyl(oxido)-λ^6-sulfanylidene]benzamide], the half-inhibitory concentration (IC50) (usually the midpoint of a concentration-inhibition curve) was less than 150 nM.
Turning to `CC(C)(CO)NC(=O)c1ccc(COc2coc(CN3Cc4ccccc4C3)cc2=O)cc1` [Compound 283, N-(1-hydroxy-2-methylpropan-2-yl)-4-(((6-(isoindolin-2-ylmethyl)-4-oxo-4H-pyran-3-yl)oxy)methyl)benzamide], the 50% inhibitory concentration (IC50) was 150 to 300 nM.
For the compound `CN(C)C(=O)c1ccc(COc2coc(CN3CCc4ccccc4C3)cc2=O)cc1` [Compound 119, 4-(((6-((3,4-Dihydroisoquinolin-2(1H)-yl)methyl)-4-oxo-4H-pyran-3-yl)oxy)-methyl)-N,N-dimethylbenzamide], the IC50 lay in the range of 301 to 2000 nM.
With `O=c1cc(CN2Cc3ccccc3C2)occ1OCc1ccc(S(=O)(=O)C2COC2)cc1` [Compound 233, 2-(Isoindolin-2-ylmethyl)-5-((4-(oxetan-3-ylsulfonyl)benzyl)oxy)-4H-pyran-4-one], the IC50 is 150 to 300 nM.
The figure for `CS(=O)(=O)N1CCC(COc2coc(CN3Cc4ccccc4C3)cc2=O)CC1` [Compound 185, 2-(Isoindolin-2-ylmethyl)-5-((1-(methylsulfonyl)piperidin-4-yl)methoxy)-4H-pyran-4-one] is less than 150 nM; for `C=CC(=O)N1CCC(COc2coc(CN3Cc4ccccc4C3)cc2=O)CC1` [Compound 258, 5-((1-Acryloylpiperidin-4-yl)methoxy)-2-(isoindolin-2-ylmethyl)-4H-pyran-4-one] it is 150 to 300 nM; for `CC(=O)c1ccc(COc2coc(CN3Cc4ccccc4C3)cc2=O)cc1` [Compound 31, 5-((4-Acetylbenzyl)oxy)-2-(isoindolin-2-ylmethyl)-4H-pyran-4-one] it is 150 to 300 nM.
The figure for `O=c1cc(CN2Cc3ccccc3C2)occ1OCC1CCSCC1` [Compound 196, 2-(Isoindolin-2-ylmethyl)-5-((tetrahydro-2H-thiopyran-4-yl)methoxy)-4H-pyran-4-one] is less than 150 nM.
In the case of `CS(=O)(=O)N1CCC(COc2coc(CN3Cc4ccc(C(F)(F)F)cc4C3)cc2=O)CC1` [Compound 184, 5-((1-(Methylsulfonyl)piperidin-4-yl)methoxy)-2-((5-(trifluoromethyl)isoindolin-2-yl)methyl)-4H-pyran-4-one], the IC50 is less than 150 nM.
Consider `O=C(NC1CCSC1=O)c1ccc(COc2coc(CN3Cc4ccccc4C3)cc2=O)cc1` (stereo not drawn) [Compound 96, 4-(((6-(Isoindolin-2-ylmethyl)-4-oxo-4H-pyran-3-yl)oxy)methyl)-N-(2-oxotetra-hydrothiophen-3-yl)benzamide], for which the IC50 was in the range of 301 to 2000 nM.
The figure for `CCC(=O)N1CCC(COc2coc(CN3Cc4ccccc4C3)cc2=O)CC1` [Compound 261, 2-(Isoindolin-2-ylmethyl)-5-((1-propionylpiperidin-4-yl)methoxy)-4H-pyran-4-one] is less than 150 nM; for `CC(C)S(=O)(=O)N1CCC(COc2coc(CN3Cc4ccccc4C3)cc2=O)CC1` [Compound 270, 2-(Isoindolin-2-ylmethyl)-5-((1-(isopropylsulfonyl)piperidin-4-yl)methoxy)-4H-pyran-4-one] it is 150 to 300 nM.
As for `O=c1cc(CN2CCc3ccccc3C2)occ1OCc1ccc(C2(O)COC2)cc1` [Compound 117, 2-((3,4-Dihydroisoquinolin-2(1H)-yl)methyl)-5-((4-(3-hydroxyoxetan-3-yl)-benzyl)oxy)-4H-pyran-4-one], the figure is 301 to 2000 nM.
The figure for `Cc1ccc(S(=O)(=O)N=S(C)c2ccc(COc3coc(CN4Cc5ccccc5C4)cc3=O)cc2)cc1` (stereo not drawn) [Compound 93, N-{[4-({[6-(1,3-dihydro-2H-isoindol-2-ylmethyl)-4-oxo-4H-pyran-3-yl]oxy}-methyl)phenyl](methyl)-λ^4-sulfanylidene}-4-methylbenzenesulfonamide] is less than 150 nM.
As for `COCc1cccnc1N1CCN(C(=O)COc2coc(CN3Cc4ccccc4C3)cc2=O)CC1` [Compound 159, 2-(Isoindolin-2-ylmethyl)-5-(2-(4-(3-(methoxymethyl)pyridin-2-yl)piperazin-1-yl)-2-oxoethoxy)-4H-pyran-4-one], the IC50 lay within 301 to 2000 nM.
Regarding `CC(F)(F)C(=O)N1CCC(COc2coc(CN3Cc4ccc(F)cc4C3)cc2=O)CC1` [Compound 223, 5-((1-(2,2-Difluoropropanoyl)piperidin-4-yl)methoxy)-2-((5-fluoroisoindolin-2-yl)methyl)-4H-pyran-4-one], the concentration for half-maximal inhibition (IC50) lay within 150 to 300 nM.
Regarding `CNC(=O)C1CCC(COc2coc(CN3Cc4ccccc4C3)cc2=O)CC1` (stereo not drawn) [Compound 227, 4-(((6-(Isoindolin-2-ylmethyl)-4-oxo-4H-pyran-3-yl)oxy)methyl)-N-methylcyclo-hexanecarboxamide], the IC50 lay in the range of 150 to 300 nM.
As for `CC(C)(CO)CNC(=O)c1ccc(COc2coc(CN3Cc4ccccc4C3)cc2=O)cc1` [Compound 151, N-(3-Hydroxy-2,2-dimethylpropyl)-4-(((6-(isoindolin-2-ylmethyl)-4-oxo-4H-pyran-3-yl)oxy)methyl)benzamide], the IC50 was 301 to 2000 nM.
For the compound `CC1c2ccccc2CCN1Cc1cc(=O)c(OCc2ccc(C(=O)N3CCCC3)cc2)co1` (stereo not drawn) [Compound 125, 2-((1-Methyl-3,4-dihydroisoquinolin-2(1H)-yl)methyl)-5-((4-(pyrrolidine-1-carbonyl)benzyl)oxy)-4H-pyran-4-one], the IC50 was 301 to 2000 nM.
As for `O=c1cc(CN2Cc3ccccc3C2)occ1OCC1CCN(S(=O)(=O)C2CC2)CC1` [Compound 187, 5-((1-(Cyclopropylsulfonyl)piperidin-4-yl)methoxy)-2-(isoindolin-2-ylmethyl)-4H-pyran-4-one], the figure is less than 150 nM.
Turning to `CC(=O)N1CCC(COc2coc(CN3Cc4ccccc4C3)cc2=O)CC1` [Compound 252, 5-((1-Acetylpiperidin-4-yl)methoxy)-2-(isoindolin-2-ylmethyl)-4H-pyran-4-one], the IC50 was 150 to 300 nM.
As for `O=c1cc(CN2Cc3ccc(C(F)(F)F)cc3C2)occ1OCC1CCN(S(=O)(=O)C2COC2)CC1` [Compound 69a, 5-((1-(Oxetan-3-ylsulfonyl)piperidin-4-yl)methoxy)-2-((5-(trifluoromethyl)-isoindolin-2-yl)methyl)-4H-pyran-4-one], the IC50 is less than 150 nM.
As for `O=c1cc(CN2Cc3ccccc3C2)occ1OCC1CCN(S(=O)(=O)CC(F)(F)F)CC1` [Compound 253], the figure is 301 to 2000 nM; as for `CS(=O)(=O)c1ccc(COc2coc(CN3Cc4ccccc4C3)cc2=O)cc1` [Compound 1, 2-(Isoindolin-2-ylmethyl)-5-((4-(methylsulfonyl)benzyl)oxy)-4H-pyran-4-one], 150 to 300 nM.
Consider `CN(C)C(=O)c1ccc(COc2coc(CN3Cc4ccccc4C3)cc2=O)nc1` [Compound 170, 6-(((6-(Isoindolin-2-ylmethyl)-4-oxo-4H-pyran-3-yl)oxy)methyl)-N,N-dimethyl-nicotinamide], for which the IC50 fell in the range of 301 to 2000 nM.
On to `CSc1ccc(COc2coc(CN3Cc4ccccc4C3)cc2=O)cc1` [Compound 82, 2-(Isoindolin-2-ylmethyl)-5-((4-(methylthio)benzyl)oxy)-4H-pyran-4-one], for which the IC50 was in the range of 150 to 300 nM.
As to `CN(C)C(=O)c1ccc(COc2coc(CN3Cc4cccc(F)c4C3)cc2=O)cc1` [Compound 32, 4-(((6-((4-Fluoroisoindolin-2-yl)methyl)-4-oxo-4H-pyran-3-yl)oxy)methyl)-N,N-dimethylbenzamide], the IC50 lay within 301 to 2000 nM.
Consider `CS(=O)(=O)c1ccc(COc2coc(CN3Cc4cccc(F)c4C3)cc2=O)cc1` [Compound 27, 2-((4-Fluoroisoindolin-2-yl)methyl)-5-((4-(methylsulfonyl)benzyl)oxy)-4H-pyran-4-one], for which the IC50 was in the range of 301 to 2000 nM.
In the case of `O=C(c1ccc(COc2coc(CN3Cc4ccc(F)cc4C3)cc2=O)cc1)N1CC(F)(F)C1` [Compound 161, 5-((4-(3,3-Difluoroazetidine-1-carbonyl)benzyl)oxy)-2-((5-fluoroisoindolin-2-yl)methyl)-4H-pyran-4-one], the IC50 lay within 150 to 300 nM.
As to `CCOC(=O)C(=O)N1CCC(COc2coc(CN3Cc4ccccc4C3)cc2=O)CC1` [Compound 269, Ethyl 2-(4-(((6-(isoindolin-2-ylmethyl)-4-oxo-4H-pyran-3-yl)oxy)methyl)-piperidin-1-yl)-2-oxoacetate], the IC50 lay in the range of 150 to 300 nM.
The figure for `N#Cc1ccc(COc2coc(CN3CCc4ccccc4C3)cc2=O)c(F)c1` [Compound 51, 4-(((6-((3,4-Dihydroisoquinolin-2(1H)-yl)methyl)-4-oxo-4H-pyran-3-yl)oxy)-methyl)-3-fluorobenzonitrile] is 301 to 2000 nM; for `O=c1cc(CN2Cc3ccccc3C2)occ1OCC1CN(S(=O)(=O)c2csc(Cl)c2)C1` [Compound 30, 5-((1-((5-Chlorothiophen-3-yl)sulfonyl)azetidin-3-yl)methoxy)-2-(isoindolin-2-ylmethyl)-4H-pyran-4-one] it is 150 to 300 nM; for `Cc1ccc2c(c1)CN(Cc1cc(=O)c(OCc3ccc(S(C)(=O)=O)cc3)co1)C2` [Compound 279, 2-((5-Methylisoindolin-2-yl)methyl)-5-((4-(methylsulfonyl)benzyl)oxy)-4H-pyran-4-one] it is 150 to 300 nM.
